US20230147795A1, “COMPOSITION AND METHODS FOR PREVENTING RADIATION INJURY AND PROMOTING TISSUE REGENERATION” (FIRSTSTRING RESEARCH, INC., priority 2017, published 2023)
Residues, ends and D or L forms follow the SMILES beside them. *: point of attachment. Biotin = O=C1N[C@H]2[C@H](CS[C@H]2CCCCC(=O)*)N1; Ahx = NCCCCCC(=O)O

What was measured:
[1] = Stability study of ACT peptide in drug product gel; type: physicochemical; conditions: for ACT peptide remaining, % of the label claim (initial concentration): drug product with 1.25% hydroxyethylcellulose
Experimental: Derived through in vitro and in vivo studies, these stabilizers and excipients are incorporated into the drug product since they are non-irritating, non-staining, and non-immunogenic. […] The ACT peptide within the drug product containing 1.25% hydroxyethylcellulose only dropped to 98% of the label claim (i.e., initial concentration) when stored at 5° C. for three months and to 84% of the label claim when stored at 25° C. for the same duration. In one aspect of the invention, edetate disodium (EDTA) and Mannitol are incorporated within the drug product to provide stability to the ACT1 peptide. In some embodiments of the invention, the Mannitol is present in the formulation at 0.01% (w/w) to 1.6% (w/w), 0.01% (w/w) to 1.5% (w/w), 0.01% (w/w) to 1.4% (w/w), 0.01% (w/w) to 1.3% (w/w), 0.01% (w/w) to 1.2% (w/w), 0.01% (w/w) to 1.1% (w/w), 0.01% (w/w) to 1.0% (w/w), 0.01% (w/w) to 0.9% (w/w), 0.01% (w/w) to 0.8% (w/w), 0.01% (w/w) to 0.7% (w/w), 0.01% (w/w) to 0.6% (w/w), 0.01% (w/w) to 0.5% (w/w), 0.01% (w/w) to 0.4% (w/w), 0.01% (w/w) to 0.3% (w/w), 0.01% (w/w) to 0.2% (w/w), 0.01% (w/w) to 0.1% (w/w), or 0.01% (w/w) to 0.0.05% (w/w). In specific embodiments, the Mannitol is present in the formulation at about 0.05% (w/w).

[2] = test system: C57BL/6 mice, partial body irradiation; assay: GI-targeted murine partial body irradiation model, survival; type: in vivo, mouse; conditions: 10 mg/kg intraperitoneally daily from 24 hrs post exposure up to 21 days, preliminary
Source text: In this study, C557BL/6 mice (n=40; 20 females and 20 males) were exposed to partial body irradiation by one dose exposure of […] at 50cGy/min using a 60 Co gamma source. A Farmer ionization chamber was used to provide real-time quantification of the radiation dose. Animals were irradiated in a custom designed restrainer where their left pelvic limb was extended and maintained in position to permit shielding with a cerrobend structure. This method of shielding 5% of bone marrow serves to rescue mice from hematopoietic syndromel. Initiating 24 hrs post exposure, animals were treated daily with 0.9% sodium chloride (vehicle) or 10 mg/kg ACTT 1 (ACT1 polypeptide) delivered intraperitoneally for up to 21 days. Half of the animals (subtracting those that died on days 1-7) were euthanized on day 8 to allow for histological examination of GI organs (histology results pending).

| Molecule | ACT peptide remaining, % of the label claim (initial concentration) ([1]; stored at 5° C. for three months) | ACT peptide remaining, % of the label claim (initial concentration) ([1]; stored at 25° C. for three months) | Stability in Hydroxyethylcellulose, 250 HHX (1.25%) compared to Pluronic gels ([1]; gelling agent comparison) | Survival / early mortality (Kaplan Maier analysis) compared to saline [2] | Survival / early mortality (Kaplan Maier analysis) compared to saline ([2]; listed as ACTI polypeptide) |
| --- | --- | --- | --- | --- | --- |
| CC[C@H](C)[C@H](NC(=O)[C@H](CCC(=O)O)NC(=O)[C@H](CC(C)C)NC(=O)[C@H](CC(=O)O)NC(=O)[C@H](CC(=O)O)NC(=O)[C@@H]1CCCN1C(=O)[C@H](CCCNC(=N)N)NC(=O)[C@@H]1CCCN1C(=O)[C@H](CCCNC(=N)N)NC(=O)[C@H](CCCCN)NC(=O)[C@H](CCCCN)NC(=O)[C@H](Cc1c[nH]c2ccccc12)NC(=O)[C@@H]1CCCN1C(=O)[C@H](CCCCN)NC(=O)[C@H](CCCNC(=N)N)NC(=O)[C@H](CCCNC(=N)N)NC(=O)[C@H](CC(N)=O)NC(=O)[C@@H]1CCCN1C(=O)[C@H](Cc1ccccc1)NC(=O)[C@H](Cc1c[nH]c2ccccc12)NC(=O)[C@@H](NC(=O)[C@H](CCCCN)NC(=O)[C@@H]1CCCN1C(=O)[C@H](CCC(N)=O)NC(=O)[C@H](CCCNC(=N)N)NC(=O)CCCCCNC(=O)CCCC[C@@H]1SC[C@@H]2NC(=O)N[C@@H]21)[C@@H](C)CC)C(=O)O [Peptide 328967] ({Biotin-Ahx}-RQPKIWFPNRRKPWKKRPRPDDLEI-OH) | 98% | 84% | more stable | – | – |
| RPRPDDLEI [ACT1 polypeptide] | – | – | – | has an early effect on animal mortality | increased survival |
